Measured values taken from US20210278408A1, “METHODS OF TREATMENT OF CANCER WITH SUBSTITUTED PYRROLE AND PYRAZOLE COMPOUNDS AND DIAGNOSIS OF CANCERS SUSCEPTIBLE TO TREATMENT WITH SUBSTITUTED PYRROLE AND PYRAZOLE COMPOUNDS” (Bantam Pharmaceutical, LLC, priority 2018, published 2021).
Like-named read-outs stand apart in the source and are kept apart here.

How the values were obtained:
HUVEC = assay: Anti-proliferative activity, CellTiter-Glo, 72 hours: HUVEC; type: cell-based, human; details: Homo sapiens, HUVEC (primary endolithial cells), Cell-Titre-Glo
Procedure: (§1) Anti-proliferative activity of BTM compounds. The anti-proliferative activities of Compound A197 and Compound B19 were compared to 4EGI-1 (a known cancer cell growth inhibitor) in a panel of 99 tumor lines. Methods: A panel of 96 tumor and 3 normal cell lines were tested for sensitivity to the test compound. The cell lines were cultured in standard media and pipetted into 96-well plates at the required plating densities. The cells were acclimated for 24 hours prior to compound testing. Compound was prepared as a stock of 20 mM in DMSO. To prepare dose response curves compound was serially diluted in DMSO and dispensed into the plate wells using a Tecan D300e digital dispenser. The final DMSO concentration was 0.15%. After 72 hours of incubation cell number was determined using the CellTiter-Glo® protocol according to the manufacturers instructions (Promega). In this assay, ATP is measured as a surrogate of cell number. The activity of the compound is determined by comparing untreated cells with treated cells and calculating the % of signal retained. Compound activity is measured as an EC50 of maximum level of efficacy and the two are used to compute an activity area. The table below provides a comparison of activity in a data sample.

MIA PaCa-2 = assay: Anti-proliferative activity, CellTiter-Glo, 72 hours: MIA PaCa-2; type: cell-based, human; details: Homo sapiens, MIA PaCa-2 (pancreactic cancer (carcinoma)), Cell-Titre-Glo
Procedure: as §1

JHH-6 = assay: Cell viability, CellTiter-Glo, 96 h: JHH-6; type: cell-based; details: for IC50: read-out: Absolute IC50
Procedure: (§2) Viability was determined by using the 50% inhibitory concentration (IC50) as determined with the CellTiter-Glo® Viability Assay (Promega). All cells were cultured under standard conditions in media supplemented with 10-15% Fetal Bovine Serum, at a temperature of 37° C., 5% CO2 and 95% humidity.
(§3) Cells were harvested during the logarithmic growth period, counted, and the cell concentration adjusted to 4.44×10^4 cells/mL using culture medium. A final cell density of 4×10^3 cells/well was added in a 90 μL cell suspension to plates A and B as shown.
(§4) Test plate B was incubated for 96 h in the humidified incubator at 37° C. with 5% CO2.
(§5) Following the incubation, the plate was equilibrated at room temperature for thirty minutes. CellTiter-Glo® (50 μL) was added to each well of the plate and contents mixed for five minutes on an orbital shaker to induce cell lysis. The luminescent signal was allowed to stabilize at room temperature for 20 minutes and the luminescence recorded.
(§6) IC50 (EC50) was calculated using a dose-response curve, fitted using a nonlinear regression model with a sigmoidal dose response. Survival rate was calculated using the formula:
(§7) The Surviving rate (%)=(LumTest article−LumMedium control)/(LumNon-treated−LumMedium control)×100%.
(§8) Absolute IC50 (EC50) was calculated according to the dose-response curve generated by the statistical software (GraphPad Prism 5.0).

[1] = Single rising-dose mouse pharmacokinetics (PK) experiment; type: in vivo, CD-1 mice; details: for PK properties: mouse PK data
Procedure: FIG. 9 is a graph of mouse pharmacokinetics of a single rising dose PK of Compound A197 in female CD-1 mice. Compound was administered orally with the indicated dose. Blood was drawn by tail-bleed at the appropriate times and Compound A197 plasma levels determined by LC-MS. All values, mean±SD (n=3 mice per group).
A single rising-dose mouse pharmacokinetics (PK) experiment was performed at PGP-52 TI 10, 20, 40, 150 and 300 mg/kg Compound A197. Female CD-1 mice (20-30 grams in weight) were dosed by oral gavage or by intravenous injection with A197 dissolved in 1% NMP, 0.3% Tween-80 in 0.5% methylcellulose at a dose volume of 10 ml/kg. Following compound dosing, blood was collected by tail vein bleed into K2EDTA tubes at 30 minutes, 1, 3, 5, 7, 24 an 48 hrs following dosing. Plasma (5 μL) from A197 dosed animals was acidified with […] and 1% ammonium formate in methanol to precipitate protein and delipidate plasma. The material was centrifuged at 1000× and a 120 μL sample of the supernatant was then dried under vacuum. The deproteinated and delipidated residue was resuspended in 200 μL of 1% ammonium formate in methanol and the centrifugation and drying process repeated. The dried material is then resuspended in 100 μL of a mixture of 2 parts methanol: 1 part acetonitrile: 1 part water. A 10 μL sample of this material is then injected onto a Xbridge C18 2.5 μM, 3×30 mm, XP column attached to a TSQ Vantage LC/MS system for quantitation.

NHLF = assay: Anti-proliferative activity, CellTiter-Glo, 72 hours: NHLF; type: cell-based; details: NHLF (human lung fibroblast), Cell-Titre-Glo
Procedure: as §1

8305C = assay: Cell viability, CellTiter-Glo, 96 h: 8305C; type: cell-based; details: for IC50: read-out: Absolute IC50
Procedure: as §2, §3, §4, §5, §6, §7, §8

HUH-6 CLONE5 = assay: Cell viability, CellTiter-Glo, 96 h: HUH-6 CLONE5; type: cell-based; details: for IC50: read-out: Absolute IC50
Procedure: as §2, §3, §4, §5, §6, §7, §8

SU-DHL-4 = assay: Anti-proliferative activity, CellTiter-Glo, 72 hours: SU-DHL-4; type: cell-based, human; details: Homo sapiens, SU-DHL-4 (B-cell lymphoma), Cell-Titre-Glo
Procedure: as §1

SU-DHL-10 = assay: Anti-proliferative activity, CellTiter-Glo, 72 hours: SU-DHL-10; type: cell-based, human; details: Homo sapiens, SU-DHL10, SU-DHL-10 (B-cell lymphoma), Cell-Titre-Glo
Procedure: as §1

SK-MEL-28 = assay: Anti-proliferative activity, CellTiter-Glo, 72 hours: SK-MEL-28; type: cell-based, human; details: Homo sapiens, SK-MEL-28 (melanoma), Cell-Titre-Glo
Procedure: as §1

NCI-H2122 = assay: Anti-proliferative activity, CellTiter-Glo, 72 hours: NCI-H2122; type: cell-based, human; details: Homo sapiens, NCI-H2122 (non-small cell lung cancer), Cell-Titre-Glo
Procedure: as §1

HK-2 = assay: Anti-proliferative activity, CellTiter-Glo, 72 hours: HK-2; type: cell-based, human; details: Homo sapiens, HK-2 (kidney epilithial), Cell-Titre-Glo
Procedure: as §1

[2] = system: panel of 96 tumor and 3 normal cell lines; assay: Anti-proliferative activity in a panel of 99 cell lines, CellTiter-Glo, 72 hours; type: cell-based, human; details: for IC50: Homo sapiens, in responsive cell lines, read-out: activity range; for % of hematopoietic tumor lines being responsive / % of solid tumor lines being responsive: IC50<2 μM; for active in % of the tested cell lines (IC50<2 μM): all tested cell lines; for % of NSCLC tumor lines responsive / % of colorectal tumor lines responsive / % of sarcoma tumor lines responsive: among solid tumor lines; for activity in primary diploid cell lines: e.g. human umbilical vein endothelial cells and normal human lung fibroblasts (NHLF)
Procedure: as §1

HT-1080 = assay: Anti-proliferative activity, CellTiter-Glo, 72 hours: HT-1080; type: cell-based, human; details: Homo sapiens, HT-1080 (fibrosarcoma), Cell-Titre-Glo
Procedure: as §1

KU812 = assay: Cell viability, CellTiter-Glo, 96 h: KU812; type: cell-based; details: for IC50: read-out: Absolute IC50
Procedure: as §2, §3, §4, §5, §6, §7, §8

Row | SMILES | IC50 (HUVEC) | IC50 (MIA PaCa-2) | % inhibition at top conc. (JHH-6) | IC50 (JHH-6) | PK properties [1] | IC50 (NHLF) | % inhibition at top conc. (8305C) | % inhibition at top conc. (HUH-6 CLONE5) | IC50 (HUH-6 CLONE5) | IC50 (SU-DHL-4) | IC50 (SU-DHL-10) | IC50 (SK-MEL-28) | IC50 (NCI-H2122) | IC50 (HK-2) | IC50 [2] | % of hematopoietic tumor lines being responsive [2] | % of solid tumor lines being responsive [2] | active in % of the tested cell lines (IC50<2 μM) [2] | % of NSCLC tumor lines responsive [2] | % of colorectal tumor lines responsive [2] | other results
1 | Cc1nn(-c2nc(-c3ccc(C(F)(F)F)cc3)c(SC(C)C)s2)c(C(=O)O)c1-c1cccc(F)c1 [Compound A197, 4-(3-fluorophenyl)-1-(5-(isopropylthio)-4-(4-(trifluoromethyl)phenyl)thiazol-2-yl)-3-methyl-1H-pyrazole-5-carboxylic acid] | > 30 µM | 0.623 µM | 45.19% | > 30 µM | drug-like PK properties suitable for once daily dosing | > 30 µM | 33.79% | 11.18% | > 30 µM | 0.288 µM | 0.136 µM | > 30 µM | 0.2 µM | > 30 µM | 0.1 to 2 µM | 90% | 28% | 40% | 80% | 37% | dose proportionality ([1]; single rising dose 10, 20, 40, 150 and 300 mg/kg, oral, female CD-1 mice, plasma by LC/MS): dose proportionality was observed up to 300 mg/kg; IC50 (8305C; Homo sapiens): > 30 µM; % of sarcoma tumor lines responsive [2]: 40%; activity in primary diploid cell lines [2]: tested negative; IC50 (HT-1080): 0.725 µM; % inhibition at top conc. (KU812): 27.53%; IC50 (KU812; Homo sapiens): > 30 µM
2 | COC(=O)c1c(-c2cccc(F)c2)c(C)nn1-c1nc(C2=CCC(C(F)(F)F)CC2)c(SC(C)C)s1 (single isomer, unassigned) [Compound B19, methyl 4-(3-fluorophenyl)-1-(5-(isopropylthio)-4-(4-(trifluoromethyl)cyclohex-1-en-1-yl)thiazol-2-yl)-3-methyl-1H-pyrazole-5-carboxylate] | > 30 µM | 0.447 µM | – | – | drug-like PK properties suitable for once daily dosing | > 30 µM | – | – | – | 0.36 µM | 0.119 µM | > 30 µM | 0.184 µM | > 30 µM | 0.1 to 2 µM | 90% | 28% | 40% | 80% | 37% | % of sarcoma tumor lines responsive [2]: 40%; activity in primary diploid cell lines [2]: tested negative; IC50 (HT-1080): 0.528 µM
3 | N.N.[Cl][Pt][Cl] [Cisplatin, reference compound] | – | – | 95.32% | 3.12 µM | – | – | 99.17% | 99.43% | 6.33 µM | – | – | – | – | – | – | – | – | – | – | – | IC50 (8305C): 6.14 µM; % inhibition at top conc. (KU812): 99.20%; IC50 (KU812): 1.95 µM
